Reference: patent publication US20240002372A1, “ANTICHOLINERGIC AGENTS” (REZUBIO PHARMACEUTICALS CO., LTD, priority 2020, published 2024)
pIC50: −log10 of the molar value. Structures can show the parent of a compound that is named as a salt.

What follows are compounds tested against M3 receptor (Homo sapiens (Human), UniProt P20309) (assay: FLIPR calcium flux assay, antagonist mode, CHO-K1 cells stably expressing M3 receptor). Conditions: inhibition of acetylcholine-induced calcium flux (8 nM acetylcholine, EC80).
M3 receptor, sequence (P20309 whole entry): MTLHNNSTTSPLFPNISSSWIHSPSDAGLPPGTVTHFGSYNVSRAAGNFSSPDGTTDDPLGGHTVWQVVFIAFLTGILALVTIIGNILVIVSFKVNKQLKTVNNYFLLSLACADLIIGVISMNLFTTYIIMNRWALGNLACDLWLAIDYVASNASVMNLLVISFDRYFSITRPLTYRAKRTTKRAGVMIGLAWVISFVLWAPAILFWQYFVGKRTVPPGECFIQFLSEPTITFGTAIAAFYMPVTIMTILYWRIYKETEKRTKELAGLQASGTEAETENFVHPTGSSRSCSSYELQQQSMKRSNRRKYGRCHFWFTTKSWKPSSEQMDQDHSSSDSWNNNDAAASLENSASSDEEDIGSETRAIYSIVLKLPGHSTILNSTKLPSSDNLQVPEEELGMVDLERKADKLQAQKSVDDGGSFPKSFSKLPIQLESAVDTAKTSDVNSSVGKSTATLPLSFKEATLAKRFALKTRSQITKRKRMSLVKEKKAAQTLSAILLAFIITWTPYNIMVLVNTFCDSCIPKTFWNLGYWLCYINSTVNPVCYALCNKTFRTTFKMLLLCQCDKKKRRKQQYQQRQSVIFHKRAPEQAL
Assay type: cell-based
Protocol: FLIPR assay was used to evaluate the potency of compounds. CHO-K1 cells stably expressing M3 receptor were cultured at 37° C. in the culture media (90% Ham's F-12 Nutrient Mixture, Gibco; 10% fetal bovine serum, Biosera; 200 μg/mL Hygromycin, and Penicillin (100 U/mL)/Streptomycin (100 μg/mL), Invitrogen) till 100% confluency in cell culture incubator (ThermoFisher, 5% CO2). Cells were harvested by using 0.25% Trypsin/EDTA, spun down at 300×g for 5 min, and resuspended in the culture media at cell density of 5×10^5 cells/mL. Twenty microliter of cell suspension (10,000 cells/well) was transferred to 384-well plate and cultured for 24 hr before assay. DMSO was used as blank control and scopolamine (MedChemExpress) as a positive control for antagonist. Compounds were prepared in DMSO (stock concentration: 1 mM) and 3×serially diluted (10 concentrations) in 384-LDV plate (Labcyte). Ninety nL of serially diluted compounds were transferred from 384-LDV plate into compound plate (PerkinElmer) by Echo 550 (Labcyte), and 30 uL assay buffer (1×HBSS with 20 mM HEPES, pH 7.4, Sigma) were added to each well. For FLIPR assay, culture media was removed and 20 uL of 1× loading dye (Assay buffer with 2 μM Fluo-8 AM, AAT Bioquest; 1 mM Probenecid and 0.0025% pluronic F-127, Sigma) was added to each well. The plate was incubated at 37° C. for 1 hr (avoid light exposure). For FLIPR assay, Excitation wavelength was set at 470/495 nm and Emission wavelength was set at 515/575 nm (Molecular Devices). Assay was performed in both agonist and antagonist modes. For agonist mode, 10 μL of diluted compounds were transferred to cell culture well and incubated at room temperature for 10 min. For antagonist mode, 10 μL diluted compounds with 8 nM acetylcholine (EC80, MedChemExpress) was added to each well, incubated at room temperature for 10 min. RFU value was calculated by subtracting minimum from maximum of FLIPR signal. Inhibitory effect of compounds on acetylcholine-induced calcium flux was calculated by % Effect=(RFUsample−RFUDMSO)/(RFUScopolamine−RFUDMSO)×100. Dose response curve fitting and IC50 value of each compound was calculated by using XLFit. The following table lists the IC50 where * means IC50>1000 nM; ** 10-100 nM; ***<10 nM.
Compound C[N+]1(C)CC[C@@H](OC(=O)C(O)c2ccccc2C2=CCCC2)C1 (single isomer, unassigned) [Example 2, trifluoroacetate] has a pIC50 greater than 8.00. C[N+]1(C)CC[C@@H](OC(=O)C(O)c2ccccc2C2=CCCC2)C1 (single isomer, unassigned) [Example 3, trifluoroacetate] showed a pIC50 of 7.00 to 8.00. C[N+]1(C)CC[C@H](OC(=O)C(O)c2ccccc2C2=CCCC2)C1 (single isomer, unassigned) [Example 4, trifluoroacetate] gave a pIC50 of 7.00 to 8.00. Compound C[N+]1(C)CC[C@H](OC(=O)C(O)c2ccccc2C2=CCCC2)C1 (single isomer, unassigned) [Example 5, trifluoroacetate] has a pIC50 of 7.00 to 8.00. Work on C[N+]1(C)CCC[C@@H]1COC(=O)C(O)c1ccccc1C1=CCCC1 (single isomer, unassigned) [Example 6, trifluoroacetate] yielded a pIC50 greater than 8.00. C[N+]1(C)CCC[C@H]1COC(=O)C(O)c1ccccc1C1=CCCC1 (single isomer, unassigned) [Example 8, trifluoroacetate] was tested, and the pIC50 was 7.00 to 8.00. Work on C[N+]1(C)CCC[C@H]1COC(=O)C(O)c1ccccc1C1=CCCC1 (single isomer, unassigned) [Example 9, trifluoroacetate] yielded a pIC50 greater than 8.00. For C[N+]1(C)CC[C@@H](OC(=O)C(O)c2ccccc2-c2ncco2)C1 (stereo partly drawn) [Example 1, (3R)-3-(2-hydroxy-2-(2-(oxazol-2-yl)phenyl)acetoxy)-1,1-dimethylpyrrolidin-1-ium trifluoroacetate], the pIC50 was 7.00 to 8.00. C[N+]1(C)CCC[C@@H]1COC(=O)C(O)c1ccccc1C1=CCCC1 (stereo partly drawn) [Example 7, (R)-2-((2-(2-(cyclopent-1-en-1-yl)phenyl)-2-hydroxyacetoxy)methyl)-1,1-dimethylpyrrolidin-1-ium trifluoroacetate] showed a pIC50 of 7.00 to 8.00. Compound C[N+]1(C)CCC(OC(=O)C(O)c2ccccc2C2CCCC2)C1 (stereo not drawn) [Example 10, 3-[2-(2-Cyclopentyl-phenyl)-2-hydroxy-acetoxy]-1,1-dimethyl-pyrrolidinium chloride] has a pIC50 of 7.00 to 8.00. C[N+]1(C)CCC(OC(=O)C(O)c2ccccc2-c2ccccc2)C1 (stereo not drawn) [Example 11, 3-(2-([1,1′-biphenyl]-2-yl)-2-hydroxyacetoxy)-1,1-dimethylpyrrolidin-1-ium chloride] gave a pIC50 of 7.00 to 8.00. For CC(C)c1ccccc1C(O)C(=O)OC1CC[N+](C)(C)C1 (stereo not drawn) [Example 12, 3-(2-hydroxy-2-(2-isopropylphenyl)acetoxy)-1,1-dimethylpyrrolidin-1-ium chloride], the pIC50 was less than 6.00.
